Laboratory results published in the Kinase Knowledgebase extract (Sharma et al. 2016).

How the values were obtained:
[1] = target: EGFR (UniProt P00533); settings: concentration not given here
[2] = target: EGFR (human) (UniProt P00533); settings: for IC50: mda-mb-468; for inhibition: mda-mb-468, concentration not given here
Chain of EGFR (human) (P00533 whole entry, looked up): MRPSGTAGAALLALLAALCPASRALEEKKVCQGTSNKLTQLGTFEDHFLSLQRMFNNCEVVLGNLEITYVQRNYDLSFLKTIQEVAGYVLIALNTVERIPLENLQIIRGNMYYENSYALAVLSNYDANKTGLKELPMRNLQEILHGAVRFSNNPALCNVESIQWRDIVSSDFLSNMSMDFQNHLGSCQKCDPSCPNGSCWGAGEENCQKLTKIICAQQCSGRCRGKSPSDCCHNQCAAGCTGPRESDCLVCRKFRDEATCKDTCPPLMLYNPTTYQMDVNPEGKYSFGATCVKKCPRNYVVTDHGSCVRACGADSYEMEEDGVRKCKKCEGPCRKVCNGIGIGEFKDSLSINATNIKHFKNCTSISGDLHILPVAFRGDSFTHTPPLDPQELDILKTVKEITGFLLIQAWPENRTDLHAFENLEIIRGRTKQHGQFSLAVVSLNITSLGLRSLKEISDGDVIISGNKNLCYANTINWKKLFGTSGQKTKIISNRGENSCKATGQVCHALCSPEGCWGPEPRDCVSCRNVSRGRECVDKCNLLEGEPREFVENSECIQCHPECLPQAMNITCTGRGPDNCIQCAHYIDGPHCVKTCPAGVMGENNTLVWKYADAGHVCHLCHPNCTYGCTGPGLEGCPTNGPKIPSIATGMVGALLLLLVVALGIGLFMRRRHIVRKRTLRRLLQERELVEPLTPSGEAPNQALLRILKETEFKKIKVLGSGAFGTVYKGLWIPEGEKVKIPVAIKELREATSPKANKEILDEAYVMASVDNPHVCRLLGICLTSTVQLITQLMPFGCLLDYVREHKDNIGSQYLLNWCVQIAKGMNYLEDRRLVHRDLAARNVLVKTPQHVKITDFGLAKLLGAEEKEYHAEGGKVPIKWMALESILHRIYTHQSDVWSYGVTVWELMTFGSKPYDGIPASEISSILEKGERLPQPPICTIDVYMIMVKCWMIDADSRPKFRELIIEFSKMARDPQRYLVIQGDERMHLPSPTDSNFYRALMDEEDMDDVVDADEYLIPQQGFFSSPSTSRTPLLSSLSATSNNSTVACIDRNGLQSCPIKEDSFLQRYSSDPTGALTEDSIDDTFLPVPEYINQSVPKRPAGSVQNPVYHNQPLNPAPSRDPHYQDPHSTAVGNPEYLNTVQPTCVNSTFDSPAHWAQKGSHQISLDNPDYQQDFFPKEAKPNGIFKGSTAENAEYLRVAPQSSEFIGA

Chain of EGFR (P00533 whole entry, looked up): as above

inhibition [1] | IC50 [2] | inhibition [2] | Structure (SMILES)
0% | 4 µM |  | Nc1ccc(Nc2ccc([N+](=O)[O-])c3ncnc(O)c23)cc1
28% |  |  | COC(=O)C#Cc1ccc([N+](=O)[O-])cc1
0% |  | 35.8% | COc1ccc([N+](=O)[O-])c2ncnc(O)c12
3.9% |  | 32.3% | CCOc1ccc([N+](=O)[O-])c2ncnc(O)c12
0% |  | 15.2% | Cc1cccc(Nc2ccc([N+](=O)[O-])c3ncnc(O)c23)c1
18.3% |  | 28.6% | O=[N+]([O-])c1ccc(Nc2ccc(Cl)cc2)c2c(O)ncnc12
21.1% | 4.2 µM |  | O=[N+]([O-])c1ccc(Nc2ccc(OCc3ccccc3)cc2)c2c(O)ncnc12
12.2% | < 0.01 µM | 75.5% | COc1ccc(Nc2ccc([N+](=O)[O-])c3ncnc(O)c23)cc1
17.1% | > 10 µM | 32.5% | O=[N+]([O-])c1ccc(Nc2cccc(Cl)c2)c2c(O)ncnc12
17.7% | 0.48 µM |  | O=[N+]([O-])c1ccc(Nc2ccccc2)c2c(O)ncnc12

Structure (SMILES) | inhibition [1] | IC50 [2] | inhibition [2]
CSCC[C@@H](Nc1ccc([N+](=O)[O-])c2ncnc(O)c12)C(=O)O | 5.6% |  | 19.9%
O=[N+]([O-])c1ccc(NCc2ccccc2)c2c(O)ncnc12 | 5.2% |  | 12.1%
O=[N+]([O-])c1ccc(N2CCCC2)c2c(O)ncnc12 | 0% |  | 23.3%
O=C(O)[C@H](Nc1ccc([N+](=O)[O-])c2ncnc(O)c12)c1ccccc1 | 6.5% |  | 29.2%
O=[N+]([O-])c1ccc(N2CC=CC2)c2c(O)ncnc12 | 7.9% |  | 34.6%
